Results: patent US12728177B2, “Disinfectant composition with rapid antiviral efficacy” (priority 2015, dated 2026)
Structures can show the parent of a compound that is named as a salt.

Test system: Bacteriophage Phi X174 (ATCC 13706-81)
Experiment: Virucidal infectivity (percent reduction in virus infectivity, E. coli outgrowth with resazurin dye);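 further: exposed phage diluted into broth, E. coli outgrowth followed 16-24 h at 37 °C by fluorescence rate, unexposed phage set as 100% signal, phage-free as 0%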
Conditions: 10-minute exposure
[1] = secondary agent 3 mM + Maleic Acid 3 mM
[2] = secondary agent 3 mM + Phosphonc Acid 50-150 mM
[3] = secondary agent 3 mM + Sulfosuccinic Acid 10-32 mM
[4] = secondary agent 9 mM + Maleic Acid 3 mM
[5] = secondary agent 9 mM + Phosphonc Acid 50-150 mM
[6] = secondary agent 9 mM + Sulfosuccinic Acid 10-32 mM
[7] = secondary agent 28 mM + Maleic Acid 3 mM
[8] = secondary agent 28 mM + Phosphonc Acid 50-150 mM
[9] = secondary agent 28 mM + Sulfosuccinic Acid 10-32 mM
[10] = secondary agent 85 mM + Maleic Acid 3 mM
[11] = secondary agent 85 mM + Phosphonc Acid 50-150 mM
[12] = secondary agent 85 mM + Sulfosuccinic Acid 10-32 mM

Method: Bacteriophage Phi X174 (ATCC 13706-81) was added 1:10 (−108 plaque forming units (PFU) per sample) into a solution containing the composition of interest. Following a 10-minute exposure, the sample was transferred 1:10 into Tryptic Soy Broth (TSB). Following 10 minutes in TSB, a second 1:10 dilution was completed into an outgrowth solution for the Phi X174 host (E. coli ATCC 13706) that contained TSB and a resazurin dye. E. coli outgrowth was then monitored at 37° C. for 16-24 hours and the rate of fluorescence development was calculated. The rate observed when Phi X174 was not exposed to any composition represented a 100% Phi X174 signal. The rate observed without Phi X174 present represented a “0% signal.” The rate obtained following Phi X174 exposure to a given composition was compared to the signal obtained with no exposure to calculate the “percent reduction in virus infectivity.”

N=C(N)NN [Aminoguanidine Hydrochloride]
% Reduction, Secondary Antiviral Agent Alone (agent alone 6 mM): 2%
% Reduction, Secondary Antiviral Agent Alone (agent alone 18 mM): 7%
% Reduction, Secondary Antiviral Agent Alone (agent alone 53 mM): 4%
% Reduction, Secondary Antiviral Agent Alone (agent alone 158 mM): 1%
reduction in virus infectivity, in Combination with Maleic Acid (3 mM) [1]: 12%
reduction in virus infectivity, in Combination with Phosphonc Acid (50-150 mM) [2]: 50%
reduction in virus infectivity, in Combination with Sulfosuccinic Acid (10-32 mM) [3]: 0%
reduction in virus infectivity, in Combination with Maleic Acid (3 mM) [4]: 4%
reduction in virus infectivity, in Combination with Phosphonc Acid (50-150 mM) [5]: 86%
reduction in virus infectivity, in Combination with Sulfosuccinic Acid (10-32 mM) [6]: 0%
reduction in virus infectivity, in Combination with Maleic Acid (3 mM) [7]: 0%
reduction in virus infectivity, in Combination with Phosphonc Acid (50-150 mM) [8]: 50%
reduction in virus infectivity, in Combination with Sulfosuccinic Acid (10-32 mM) [9]: 4%
reduction in virus infectivity, in Combination with Maleic Acid (3 mM) [10]: 0%
reduction in virus infectivity, in Combination with Phosphonc Acid (50-150 mM) [11]: 99%
reduction in virus infectivity, in Combination with Sulfosuccinic Acid (10-32 mM) [12]: 13%

[Cl][Cu][Cl] [Copper (II) Chionde]
% Reduction, Secondary Antiviral Agent Alone (agent alone 1 mM): 20%
% Reduction, Secondary Antiviral Agent Alone (agent alone 4 mM): 18%
% Reduction, Secondary Antiviral Agent Alone (agent alone 9 mM): 23%
% Reduction, Secondary Antiviral Agent Alone (agent alone 27 mM): 99%
reduction in virus infectivity, in Combination with Maleic Acid (3 mM) (secondary agent 26 mM + Maleic Acid 3 mM): 70%
reduction in virus infectivity, in Combination with Phosphonc Acid (50-150 mM) (secondary agent 26 mM + Phosphonc Acid 50-150 mM): 99%
reduction in virus infectivity, in Combination with Sulfosuccinic Acid (10-32 mM) (secondary agent 26 mM + Sulfosuccinic Acid 10-32 mM): 99%
reduction in virus infectivity, in Combination with Maleic Acid (3 mM) (secondary agent 1-3 mM + Maleic Acid 3 mM): 72%
reduction in virus infectivity, in Combination with Phosphonc Acid (50-150 mM) (secondary agent 1-3 mM + Phosphonc Acid 50-150 mM): 44%
reduction in virus infectivity, in Combination with Sulfosuccinic Acid (10-32 mM) (secondary agent 1-3 mM + Sulfosuccinic Acid 10-32 mM): 94%
reduction in virus infectivity, in Combination with Maleic Acid (3 mM) (secondary agent 4-6 mM + Maleic Acid 3 mM): 57%
reduction in virus infectivity, in Combination with Phosphonc Acid (50-150 mM) (secondary agent 4-6 mM + Phosphonc Acid 50-150 mM): 87%
reduction in virus infectivity, in Combination with Sulfosuccinic Acid (10-32 mM) (secondary agent 4-6 mM + Sulfosuccinic Acid 10-32 mM): 96%
reduction in virus infectivity, in Combination with Maleic Acid (3 mM) (secondary agent 11-13 mM + Maleic Acid 3 mM): 38%
reduction in virus infectivity, in Combination with Phosphonc Acid (50-150 mM) (secondary agent 11-13 mM + Phosphonc Acid 50-150 mM): 80%
reduction in virus infectivity, in Combination with Sulfosuccinic Acid (10-32 mM) (secondary agent 11-13 mM + Sulfosuccinic Acid 10-32 mM): 99%

CCCCCCCCCCO[C@@H]1O[C@H](CO)[C@@H](O)[C@H](O)[C@H]1O [EcoSense 3000, Decyl Glucoside]
% Reduction, Secondary Antiviral Agent Alone (agent alone 8 mM): 14%
% Reduction, Secondary Antiviral Agent Alone (agent alone 23 mM): 0%
% Reduction, Secondary Antiviral Agent Alone (agent alone 69 mM): 0%
% Reduction, Secondary Antiviral Agent Alone (agent alone 207 mM): 0%
reduction in virus infectivity, in Combination with Maleic Acid (3 mM) (secondary agent 0.3 mM + Maleic Acid 3 mM): 0%
reduction in virus infectivity, in Combination with Maleic Acid (3 mM) (secondary agent 1 mM + Maleic Acid 3 mM): 0%
reduction in virus infectivity, in Combination with Maleic Acid (3 mM) (secondary agent 7 mM + Maleic Acid 3 mM): 0%
reduction in virus infectivity, in Combination with Maleic Acid (3 mM) (secondary agent 37 mM + Maleic Acid 3 mM): 0%

N=C(N)N [Guanidine Hydrochloride]
% Reduction, Secondary Antiviral Agent Alone (agent alone 6 mM): 0%
% Reduction, Secondary Antiviral Agent Alone (agent alone 18 mM): 0%
% Reduction, Secondary Antiviral Agent Alone (agent alone 55 mM): 0%
% Reduction, Secondary Antiviral Agent Alone (agent alone 164 mM): 0%
reduction in virus infectivity, in Combination with Maleic Acid (3 mM) [1]: 0%
reduction in virus infectivity, in Combination with Phosphonc Acid (50-150 mM) [2]: 40%
reduction in virus infectivity, in Combination with Sulfosuccinic Acid (10-32 mM) [3]: 10%
reduction in virus infectivity, in Combination with Maleic Acid (3 mM) (secondary agent 10 mM + Maleic Acid 3 mM): 0%
reduction in virus infectivity, in Combination with Phosphonc Acid (50-150 mM) (secondary agent 10 mM + Phosphonc Acid 50-150 mM): 34%
reduction in virus infectivity, in Combination with Sulfosuccinic Acid (10-32 mM) (secondary agent 10 mM + Sulfosuccinic Acid 10-32 mM): 12%
reduction in virus infectivity, in Combination with Maleic Acid (3 mM) (secondary agent 29 mM + Maleic Acid 3 mM): 0%
reduction in virus infectivity, in Combination with Phosphonc Acid (50-150 mM) (secondary agent 29 mM + Phosphonc Acid 50-150 mM): 34%
reduction in virus infectivity, in Combination with Sulfosuccinic Acid (10-32 mM) (secondary agent 29 mM + Sulfosuccinic Acid 10-32 mM): 1%
reduction in virus infectivity, in Combination with Maleic Acid (3 mM) (secondary agent 86 mM + Maleic Acid 3 mM): 0%
reduction in virus infectivity, in Combination with Phosphonc Acid (50-150 mM) (secondary agent 86 mM + Phosphonc Acid 50-150 mM): 46%
reduction in virus infectivity, in Combination with Sulfosuccinic Acid (10-32 mM) (secondary agent 86 mM + Sulfosuccinic Acid 10-32 mM): 0%

CCCCCCCC/C=C\CCCCCCCC(=O)N(C)CCS(=O)(=O)[O-].[Na+] [Hostapon TPHC, Sodium Methyl Oleoyl Taurate]
% Reduction, Secondary Antiviral Agent Alone (agent alone 25 mM): 0%
% Reduction, Secondary Antiviral Agent Alone (agent alone 42 mM): 0%
% Reduction, Secondary Antiviral Agent Alone (agent alone 50 mM): 0%
% Reduction, Secondary Antiviral Agent Alone (agent alone 67 mM): 0%
reduction in virus infectivity, in Combination with Maleic Acid (3 mM) (secondary agent 25 mM + Maleic Acid 3 mM): 0%
reduction in virus infectivity, in Combination with Phosphonc Acid (50-150 mM) (secondary agent 25 mM + Phosphonc Acid 50-150 mM): 99%
reduction in virus infectivity, in Combination with Sulfosuccinic Acid (10-32 mM) (secondary agent 25 mM + Sulfosuccinic Acid 10-32 mM): 99%
reduction in virus infectivity, in Combination with Maleic Acid (3 mM) (secondary agent 42 mM + Maleic Acid 3 mM): 0%
reduction in virus infectivity, in Combination with Phosphonc Acid (50-150 mM) (secondary agent 42 mM + Phosphonc Acid 50-150 mM): 96%
reduction in virus infectivity, in Combination with Sulfosuccinic Acid (10-32 mM) (secondary agent 42 mM + Sulfosuccinic Acid 10-32 mM): 88%
reduction in virus infectivity, in Combination with Maleic Acid (3 mM) (secondary agent 50 mM + Maleic Acid 3 mM): 0%
reduction in virus infectivity, in Combination with Phosphonc Acid (50-150 mM) (secondary agent 50 mM + Phosphonc Acid 50-150 mM): 99%
reduction in virus infectivity, in Combination with Sulfosuccinic Acid (10-32 mM) (secondary agent 50 mM + Sulfosuccinic Acid 10-32 mM): 50%
reduction in virus infectivity, in Combination with Maleic Acid (3 mM) (secondary agent 67 mM + Maleic Acid 3 mM): 0%
reduction in virus infectivity, in Combination with Phosphonc Acid (50-150 mM) (secondary agent 67 mM + Phosphonc Acid 50-150 mM): 99%
reduction in virus infectivity, in Combination with Sulfosuccinic Acid (10-32 mM) (secondary agent 67 mM + Sulfosuccinic Acid 10-32 mM): 1%

CCCCCCCCCC[N+](C)(C)[O-] [Mackamine C-10, Decylamina oxide]
% Reduction, Secondary Antiviral Agent Alone (agent alone 6 mM): 7%
% Reduction, Secondary Antiviral Agent Alone (agent alone 18 mM): 4%
% Reduction, Secondary Antiviral Agent Alone (agent alone 53 mM): 11%
% Reduction, Secondary Antiviral Agent Alone (agent alone 183 mM): 30%
reduction in virus infectivity, in Combination with Maleic Acid (3 mM) (secondary agent 30 mM + Maleic Acid 3 mM): 10%
reduction in virus infectivity, in Combination with Phosphonc Acid (50-150 mM) (secondary agent 30 mM + Phosphonc Acid 50-150 mM): 0%
reduction in virus infectivity, in Combination with Sulfosuccinic Acid (10-32 mM) (secondary agent 30 mM + Sulfosuccinic Acid 10-32 mM): 6%
reduction in virus infectivity, in Combination with Maleic Acid (3 mM) (secondary agent 49 mM + Maleic Acid 3 mM): 35%
reduction in virus infectivity, in Combination with Phosphonc Acid (50-150 mM) (secondary agent 49 mM + Phosphonc Acid 50-150 mM): 0%
reduction in virus infectivity, in Combination with Sulfosuccinic Acid (10-32 mM) (secondary agent 49 mM + Sulfosuccinic Acid 10-32 mM): 0%
reduction in virus infectivity, in Combination with Maleic Acid (3 mM) (secondary agent 59 mM + Maleic Acid 3 mM): 64%
reduction in virus infectivity, in Combination with Phosphonc Acid (50-150 mM) (secondary agent 59 mM + Phosphonc Acid 50-150 mM): 0%
reduction in virus infectivity, in Combination with Sulfosuccinic Acid (10-32 mM) (secondary agent 59 mM + Sulfosuccinic Acid 10-32 mM): 2%
reduction in virus infectivity, in Combination with Maleic Acid (3 mM) (secondary agent 79 mM + Maleic Acid 3 mM): 62%
reduction in virus infectivity, in Combination with Phosphonc Acid (50-150 mM) (secondary agent 79 mM + Phosphonc Acid 50-150 mM): 0%
reduction in virus infectivity, in Combination with Sulfosuccinic Acid (10-32 mM) (secondary agent 79 mM + Sulfosuccinic Acid 10-32 mM): 0%

O=C(O)/C=C\C(=O)O [Maleic Acid]
reduction in virus infectivity, Primary Antiviral Agent without secondary agent (None) (Maleic Acid 3 mM, no secondary agent): 1-8%

NC(N)=O [Urea]
% Reduction, Secondary Antiviral Agent Alone (agent alone 7 mM): 0%
% Reduction, Secondary Antiviral Agent Alone (agent alone 20 mM): 0%
% Reduction, Secondary Antiviral Agent Alone (agent alone 60 mM): 0%
% Reduction, Secondary Antiviral Agent Alone (agent alone 180 mM): 0%
reduction in virus infectivity, in Combination with Maleic Acid (3 mM) [1]: 8%
reduction in virus infectivity, in Combination with Phosphonc Acid (50-150 mM) [2]: 57%
reduction in virus infectivity, in Combination with Sulfosuccinic Acid (10-32 mM) [3]: 1%
reduction in virus infectivity, in Combination with Maleic Acid (3 mM) [4]: 6%
reduction in virus infectivity, in Combination with Phosphonc Acid (50-150 mM) [5]: 71%
reduction in virus infectivity, in Combination with Sulfosuccinic Acid (10-32 mM) [6]: 0%
reduction in virus infectivity, in Combination with Maleic Acid (3 mM) [7]: 1%
reduction in virus infectivity, in Combination with Phosphonc Acid (50-150 mM) [8]: 53%
reduction in virus infectivity, in Combination with Sulfosuccinic Acid (10-32 mM) [9]: 25%
reduction in virus infectivity, in Combination with Maleic Acid (3 mM) [10]: 0%
reduction in virus infectivity, in Combination with Phosphonc Acid (50-150 mM) [11]: 56%
reduction in virus infectivity, in Combination with Sulfosuccinic Acid (10-32 mM) [12]: 0%
